Test results from ChEMBL document CHEMBL3808339, “Identification, synthesis and evaluation of SARS-CoV and MERS-CoV 3C-like protease inhibitors” (Bioorg Med Chem, 2016).

These compounds were tested against Neuraminidase (Influenza A virus, UniProt B4URF0) (assay: Inhibition of Influenza A virus H5N1 neuraminidase preincubated for 10 mins followed by addition of 2'-(4-methylumbelliferyl)-alpha-D-N-acetylneuraminic acid as fluorogenic substrate measured after 15 mins by fluorescence analysis).
Chain of Neuraminidase (B4URF0 whole entry): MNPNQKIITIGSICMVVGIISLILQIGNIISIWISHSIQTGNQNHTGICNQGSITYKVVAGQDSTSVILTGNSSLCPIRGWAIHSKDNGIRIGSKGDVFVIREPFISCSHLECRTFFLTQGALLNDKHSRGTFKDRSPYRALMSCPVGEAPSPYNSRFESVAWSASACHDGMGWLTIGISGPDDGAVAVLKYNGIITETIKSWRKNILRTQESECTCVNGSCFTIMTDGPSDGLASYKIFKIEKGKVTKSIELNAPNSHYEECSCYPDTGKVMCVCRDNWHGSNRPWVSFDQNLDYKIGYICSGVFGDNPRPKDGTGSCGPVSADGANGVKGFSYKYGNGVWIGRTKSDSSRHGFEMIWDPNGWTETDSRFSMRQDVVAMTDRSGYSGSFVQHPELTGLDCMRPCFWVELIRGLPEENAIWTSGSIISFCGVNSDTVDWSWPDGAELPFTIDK
For `O=C(O)c1ccc(Cl)cc1-c1ccc(/C=C2\C(=O)N(c3ccccc3)N=C2c2ccccc2)o1`, the IC50 was 2.8 µM.
With `O=C(O)c1ccc(Cl)cc1-c1ccc(/C=C2\C(=O)N(c3ccc(F)cc3)N=C2c2ccccc2)o1` the IC50 was 2.9 µM.
`O=C(O)c1ccccc1-c1ccc(/C=C2\C(=O)N(c3ccccc3)N=C2c2ccccc2)o1` showed an IC50 of 13.7 µM.

What follows are compounds tested against Replicase polyprotein 1ab (Severe acute respiratory syndrome-related coronavirus, UniProt P0C6X7).
`CC(C)(C)c1ccc(N2N=C(c3ccccc3)/C(=C/c3ccc(-c4ccccc4C(=O)O)o3)C2=O)cc1` gave an IC50 of 8.6 µM.
With `CC1=NN(c2cccc(C(=O)O)c2)C(=O)/C1=C\c1ccc(-c2ccccc2)o1` the IC50 was greater than 50 µM.
Compound `CC(C)(C)c1ccc(N2N=C(c3ccccc3)/C(=C/c3ccc(-c4cc(Cl)ccc4C(=O)O)o3)C2=O)cc1` has an IC50 of 5.8 µM.
Work on `O=C(O)c1ccc(Cl)cc1-c1ccc(/C=C2\C(=O)N(c3ccccc3)N=C2c2ccccc2)o1` yielded an IC50 of 16.4 µM.
`N#Cc1ccc(N2N=C(c3ccccc3)/C(=C/c3ccc(-c4ccccc4C(=O)O)o3)C2=O)cc1` was tested, and the IC50 was 18.7 µM.
`O=C(O)c1cccc(N2N=C(c3ccccc3)/C(=C/c3ccco3)C2=O)c1` was tested, and the IC50 was greater than 50 µM.
Compound `O=C1/C(=C\c2ccc(-c3ccccc3)o2)C(c2ccccc2)=NN1c1ccccc1` has an IC50 greater than 50 µM.
With `O=C(O)c1ccc(Cl)cc1-c1ccc(/C=C2\C(=O)N(c3ccc(F)cc3)N=C2c2ccccc2)o1` the IC50 was 20.2 µM.
For `O=C(O)c1cccc(N2N=C(c3ccccc3)/C(=C/c3ccc(-c4cc(Cl)ccc4C(=O)O)o3)C2=O)c1`, the IC50 was 44.7 µM.
`O=C(O)c1ccccc1-c1ccc(/C=C2\C(=O)N(c3ccccc3)N=C2c2ccccc2)o1` was tested, and the IC50 was 41.2 µM.
Work on `CC1=NN(c2ccccc2)C(=O)/C1=C\c1ccc(-c2cc(Cl)ccc2C(=O)O)o1` yielded an IC50 greater than 50 µM.
`O=C(O)c1cccc(N2N=C(c3ccccc3)/C(=C/c3ccc(-c4ccccc4)o3)C2=O)c1` gave an IC50 of 6.4 µM.
Work on `CC1=NN(c2cccc(C(=O)O)c2)C(=O)/C1=C\c1ccc(-c2cc(Cl)ccc2C(=O)O)o1` yielded an IC50 greater than 50 µM.
`CC(C)c1ccc(N2N=C(c3ccccc3)/C(=C/c3ccc(-c4ccccc4C(=O)O)o3)C2=O)cc1` gave an IC50 of 11.7 µM.
`COc1ccc(N2N=C(c3ccccc3)/C(=C/c3ccc(-c4ccccc4C(=O)O)o3)C2=O)cc1` gave an IC50 of 30.7 µM.
With `O=C(O)c1cccc(N2N=C(C(F)(F)F)/C(=C/c3ccc(-c4cc(Cl)ccc4C(=O)O)o3)C2=O)c1` the IC50 was greater than 50 µM.
In the case of `O=C(O)c1ccccc1-c1ccc(/C=C2\C(=O)N(c3ccc(F)cc3)N=C2c2ccccc2)o1`, the IC50 is reported as 37.5 µM.
